# In patent US4321196A, “Bis-esters of methanediol with acetonides of ampicillin or amoxicillin and penicillanic acid 1,1-dioxide” (Pfizer Inc., priority 1981, dated 1982):
# Test: Serum half-life comparison of Compound I with Compound II in fasted rats, and general statements on absorption and half-life
# Type: in vivo
# Conditions: 20 mg/kg oral, versus Compound II (Y=H)
# Protocol: Since the object of the present invention is to provide a single well-absorbed source of ampicillin/amoxicillin and penicillanic acid 1,1-dioxide in serum, the compounds of the present invention are also evaluated by determination of the serum levels of these derived compounds in experimental animals, such as laboratory rats. The serum level results in fasted rats following the oral administration of 20 mg./kg. of 6'-(2,2-dimethyl-4-phenyl-5-imidazolidinon-1-yl)-penicillanoyloxymethyl penicillanate 1,1-dioxide (I, Y=H) are shown in Table I. In this test, 6'-(2-amino-2-phenylacetamido)penicillanoyloxymethyl penicillanate 1,1-dioxide (II, Y=H) at the same oral dosage has been used as control. The blood level of ampicillin was determined by standard plate bioassay methods, using Sarcina lutea 07A001 on Seed agar. For determination of penicillanic acid 1,1-dioxide, Pasturella 59B010 on MH agar was employed. It will be noted there is an approximately 50% improvement in the half-life of Compound I (Y=H) over Compound II (Y=H).
structure (smiles),measurement,value
"CC1(C)S[C@@H]2[C@H](N3C(=O)[C@@H](c4ccccc4)NC3(C)C)C(=O)N2[C@H]1C(=O)OCOC(=O)[C@@H]1N2C(=O)C[C@H]2S(=O)(=O)C1(C)C [Compound I (Y = H), 6'-(2,2-Dimethyl-4-phenyl-5-imidazolidinon-1-yl)-penicillanoyloxymethyl Penicillanate 1,1-Dioxide]",Improvement in the half-life over Compound II (Y=H),approximately 50%
